In ChEMBL document CHEMBL1154267, “Imidazo[1,5-a][1,2,4]-triazolo[1,5-d][1,4]benzodiazepines as potent and highly selective GABAA alpha5 inverse agonists with potential for the treatment of cognitive dysfunction” (Bioorg Med Chem Lett, 2009):
≈ marks a conversion by molar mass, not a printed value. Calls of active or inactive are those of the source. No cut-off for these calls is given here.

Legend:
Rattus norvegicus [1] = assay: Behavioral effect in Lister hooded rat assessed as reversal of Scopolamine-induced impairment of working memory at 1 mg/kg, po administered 30 mins before Scopolamine challenge by delayed match to position test; type: functional, organism-based; design: dose 1 mg/kg
[2] = Solubility of the compound; type: physicochemical
[3] = Selectivity ratio of Ki for GABAA alpha-1-beta-3-gamma-2 receptor to Ki for GABAA alpha-5-beta-3-gamma-2 receptor
Liver microsomes = assay: Clearance in rat liver microsomes; type: ADME, Microsome
[4] = Oral bioavailability in rat; type: ADME, organism-based; conditions: in vivo
[5] = Lipophilicity, log D at pH 7.4; type: physicochemical; conditions: buffer
[6] = Permeability by PAMPA; type: ADME; conditions: read-out: permeability
[7] = Ratio of drug level in brain to plasma in rat; type: ADME, organism-based; conditions: brain and plasma
[8] = Selectivity ratio of Ki for GABAA alpha-2-beta-3-gamma-2 receptor to Ki for GABAA alpha-5-beta-3-gamma-2 receptor
[9] = Half life in rat; type: ADME, organism-based; conditions: in vivo
[10] = Selectivity ratio of Ki for GABAA alpha-3-beta-3-gamma-2 receptor to Ki for GABAA alpha-5-beta-3-gamma-2 receptor
[11] = Clearance in rat; type: ADME, organism-based; conditions: in vivo
[12] = biological target: GABA-A receptor; alpha-5/beta-3/gamma-2 (Homo sapiens) (UniProt P18507+P28472+P31644); assay: Inverse agonist activity at GABAA alpha-5-beta-3-gamma-2 receptor assessed as modulation of GABA-induced chloride ion flux by electrophysiology assay relative to GABA; type: functional
Rattus norvegicus [13] = species: Rattus norvegicus; assay: Toxicity in Lister hooded rat assessed as behavioral impairment; type: organism-based; conditions: in vivo
[14] = Volume of distribution at steady state in rat; type: ADME, organism-based; conditions: in vivo, read-out: Vdss
[15] = biological target: T1, GABA-A receptor; alpha-5/beta-3/gamma-2 (Homo sapiens, UniProt P18507+P28472+P31644); assay: Displacement of [3H]flumazenil from GABAA alpha-5-beta-3-gamma-2 receptor; type: protein-complex assay
T1 sequence (P18507 whole entry): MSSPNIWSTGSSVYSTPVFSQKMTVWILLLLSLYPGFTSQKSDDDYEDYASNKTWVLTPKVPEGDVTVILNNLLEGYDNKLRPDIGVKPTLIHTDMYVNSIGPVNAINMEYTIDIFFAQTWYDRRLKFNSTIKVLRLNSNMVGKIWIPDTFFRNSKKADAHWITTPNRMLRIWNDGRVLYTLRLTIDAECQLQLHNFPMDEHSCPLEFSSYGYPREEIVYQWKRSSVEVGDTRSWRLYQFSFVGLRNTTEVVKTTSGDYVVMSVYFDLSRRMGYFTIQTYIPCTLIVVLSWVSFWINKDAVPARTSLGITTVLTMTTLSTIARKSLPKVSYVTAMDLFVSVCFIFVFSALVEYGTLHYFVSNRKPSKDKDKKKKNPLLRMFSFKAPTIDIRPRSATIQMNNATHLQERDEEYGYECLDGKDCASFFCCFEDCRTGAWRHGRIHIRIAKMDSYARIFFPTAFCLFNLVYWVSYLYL
T1 sequence (P28472 whole entry): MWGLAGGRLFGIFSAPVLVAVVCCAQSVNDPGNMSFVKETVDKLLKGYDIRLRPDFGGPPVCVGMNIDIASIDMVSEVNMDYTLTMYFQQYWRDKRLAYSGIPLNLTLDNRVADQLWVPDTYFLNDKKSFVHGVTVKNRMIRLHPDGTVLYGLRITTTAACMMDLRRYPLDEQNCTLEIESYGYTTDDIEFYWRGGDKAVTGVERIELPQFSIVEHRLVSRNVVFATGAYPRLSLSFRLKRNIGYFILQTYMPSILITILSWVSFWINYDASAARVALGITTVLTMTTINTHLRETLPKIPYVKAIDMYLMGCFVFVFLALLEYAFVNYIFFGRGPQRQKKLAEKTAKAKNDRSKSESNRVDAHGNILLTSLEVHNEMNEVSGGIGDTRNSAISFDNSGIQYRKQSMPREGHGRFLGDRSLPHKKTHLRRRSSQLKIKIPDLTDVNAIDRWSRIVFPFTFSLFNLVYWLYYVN
T1 sequence (P31644 whole entry): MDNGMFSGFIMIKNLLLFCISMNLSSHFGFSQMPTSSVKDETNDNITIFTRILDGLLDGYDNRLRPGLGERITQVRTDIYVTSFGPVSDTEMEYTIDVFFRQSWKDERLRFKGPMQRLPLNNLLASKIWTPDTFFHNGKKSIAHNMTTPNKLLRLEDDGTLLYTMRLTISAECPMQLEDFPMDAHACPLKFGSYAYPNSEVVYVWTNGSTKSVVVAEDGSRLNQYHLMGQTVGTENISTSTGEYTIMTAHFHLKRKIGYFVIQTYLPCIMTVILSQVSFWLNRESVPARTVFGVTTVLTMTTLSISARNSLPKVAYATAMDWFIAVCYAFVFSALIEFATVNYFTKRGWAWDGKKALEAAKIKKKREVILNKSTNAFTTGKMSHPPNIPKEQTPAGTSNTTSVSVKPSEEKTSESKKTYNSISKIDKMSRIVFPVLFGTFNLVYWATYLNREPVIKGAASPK

## Cc1cc(Cc2nc3n(n2)Cc2c(C)ncn2-c2ccc(Cl)cc2-3)on1
Rattus norvegicus [1]
  Activity: Active
[2]
  solubility: 14 µg/mL (≈ 38.2 µM)
[3]
  Ratio Ki: 466
Liver microsomes
  CL: 6000 µL/min/mg
[4]
  bioavailability: 44%
[5]
  logD: 2.3
[6]
  Papp: 3.1 ×10⁻⁶ cm/s
[7]
  Kp: 1
[8]
  Ratio Ki: 251
[9]
  half-life: 1.4 h
[10]
  Ratio Ki: 223
[11]
  clearance: 9.5 mL/min/kg
[12]
  Efficacy: -18%
Rattus norvegicus [13]
  Activity: Non-toxic
[14]
  Vd: 1.8 L/kg
[15]
  Ki: 0.6 nM
